Molecular target: T1, CSNK1D (CK1 delta) (Homo sapiens, UniProt P48730)
T1 construct: purchased Thermo Fisher Scientific (Life Technologies) SelectScreen
Assay: SelectScreen Z'LYTE
Format: biochemical
Procedure, shortened: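 SelectScreen broad panel; activity (Z'LYTE, Adapta) plus binding formats. ATP: Km app for CSF1R Z'LYTE; 10 for CAMK1 Adapta. Readout = % per kinase.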

T1 sequence (P48730 whole entry): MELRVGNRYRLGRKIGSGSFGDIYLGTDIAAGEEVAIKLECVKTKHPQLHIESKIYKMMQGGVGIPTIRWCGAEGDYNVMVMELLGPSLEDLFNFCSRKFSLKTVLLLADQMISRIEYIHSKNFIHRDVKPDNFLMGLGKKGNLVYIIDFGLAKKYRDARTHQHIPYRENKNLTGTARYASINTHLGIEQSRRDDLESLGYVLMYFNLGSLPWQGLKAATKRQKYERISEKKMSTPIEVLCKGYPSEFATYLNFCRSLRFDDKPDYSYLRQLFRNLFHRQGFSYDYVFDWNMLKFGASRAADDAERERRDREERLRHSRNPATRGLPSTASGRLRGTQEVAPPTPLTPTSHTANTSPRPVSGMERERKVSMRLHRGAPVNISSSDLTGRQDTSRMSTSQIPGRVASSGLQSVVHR

## CN(C(=O)CN1CCOCC1)c1ccc2sc3c(-c4cccc5c(=O)cc(N6CC7CCC(C6)O7)oc45)cccc3c2c1 [NU5455]
  inhibition at 1 µM: 2.6%
